{"source": "patent US8022036B2", "about": "“Use of thymosin alpha 1 for the treatment of immunological diseases” (Sigma-Tau Industrie Farmaceutiche Riunite S.p.A., priority 2006, dated 2011)", "key": {"[1]": {"tested_on": "GM-DCs or FL-DCs", "test": "Cytokine production (ELISA) by murine GM-DCs or FL-DCs with Aspergillus conidia", "assay_type": "cell-based, mouse", "details": "1-MT added at 2 μM", "text": "GM-DCs or FL-DCs were obtained from purified CD14+ monocytes from healthy donors or transplanted patients (1 month post-HSCT) cultured in Iscove's modified medium for 7-9 days, in the presence of rGM-CSF (Schering-Plough, Milan, Italy) and rIL-4 (Peprotech, Inalco, Milan, Italy) or FLT3-L (Immunex Corporation, Seattle, Wash.) (Blood. 2004; 103:4232-4239). DC recovery was between 20-30% reduced in cultures from transplanted patients. Murine GM-DCs or FL-DCs were obtained from bone marrow cells for 7-9 days, as described (Blood. 2004; 103:4232-4239). Thymosin alpha 1 and sThymosin alpha 1 were added to the cultures at 20 ng/mL. DCs (>99% CD11c+ consisting of 90-95% CD8-, 5-10% CD8+, and 1-5% B220+ cells) were purified from spleens (spDCs) by magnetic-activated sorting using CD11c MicroBeads and MidiMacs (Miltenyi Biotech). DC populations were further separated into CD8−, CD8+ and B220+ fractions by means of CD8 or B220 MicroBeads (Miltenyi Biotech). DCs were pulsed in serum-free Iscove medium for 24 hours with live unopsonized Aspergillus conidia or Zymosan from Saccharomyces cerevisiae (Sigma) or CpG-ODN 2006 as described.7 Phagocytosis was done as described (Blood. 2004; 103:4232-4239). Photographs were taken using a high Resolution Microscopy Color Camera AxioCam, using the AxioVision Software Rel. 3.1 (Carl Zeiss, Milan, Italy).\n(§1) Cytokine content was assessed by enzyme-linked immunosorbent assays (Endogen Human Elisa Kits, R&D Systems and Euroclone, Milan, Italy). AID EliSpot assay kits (Amplimedical, Buttigliera Alta, Turin, Italy) were used on purified splenic CD4+ Tcells cocultured with conidia-pulsed DCs for 5 days to enumerate cytokine-producing cells (Blood. 2003; 102:3807-3814). 1-MT was used at 2 μM.\n(B) Cytokine production (ELISA) by GM-DCs or FL-DCs cultured in serum-free medium (1×10^6 cells/mL) with unopsonized Aspergillus conidia (5×10^5/mL) for 24 hours. The IDO inhibitor 1-MT was added at 2 μM. Data are aggregated results from three independent experiments. The detection limits (pg/mL) of the assays were <16 for IL-12p70 and <12 for IL-10."}, "[2]": {"tested_on": "splenic CD4+ T cells", "test": "Th1/T reg priming in vitro of splenic CD4+ T cells by Aspergillus-pulsed DCs (ELISPOT, flow cytometry)", "assay_type": "cell-based, mouse", "protocol": "IDO expression and functional activity were assessed as described in Nat. Immunol. 2002; 3:1097-1101. Generation, purification and activity of T reg cells Splenic CD4+ T-cells were cocultured with conidia-pulsed DCs for 5 days […] before flow cytometry or ELISPOT assay. 1-MT (Sigma-Aldrich) was used at 2 μM. CD4+CD25+ and CD4+CD25− cells (>90% pure on FACS analysis) were separated by magnetic cell sorting from lung and TLN (J. Immunol. 2006; 176:1712-1723). For T reg cell inhibition, 5×10^4 TLN T reg cells were added to 3×10^5 CD4+CD25− cells, both from transplanted mice, stimulated with 3×10^4 autologous Aspergillus conidia-pulsed spDCs or with or 1.5×10^5 allogeneic spDCs from naïve donor mice for five days before H^3-thymidine labeling. Purified peritoneal CD 11b+Gr−1+PMN (>98% pure on FACS analysis) (2×10^6) were exposed to resting conidia in the presence of 4×10^5 CD4+CD25+ for 60 min for oxidant production or 24 hours for cytokine production (J. Immunol. 2006; 176:1712-1723).\nas §1\n(A) Frequency of IFN-γ-/IL-10-producing splenic CD4+ T cells activated by Aspergillus-pulsed Thymosin alpha 1-treated GM-DCs or FL-DCs. 1-MT was present in selected cultures. Plates were read with the AID-EliSpot Reader System (Amplimedical). Values are means±SE per 10^6 cells of samples from 3-5 experiments, calculated using replicates of serial twofold dilutions of cells. (*) P<0.05, conidia-exposed versus unexposed cells; (**) P<0.05, thymosin-exposed versus unexposed cells.\n(B) Phenotypic analysis of CD4+ cells cultured alone (−) or as in (A). Numbers represent the percentage of double positive cells."}}, "data": [{"smiles": "Cn1cc(CC(N)C(=O)O)c2ccccc21", "note": "(racemic) [1-MT, 1-methyl-DL-tryptophan]", "values": [{"measurement": "IL-10 production by DCs in response to Thymosin alpha 1", "setting": "[1]", "result": "blocked"}, {"measurement": "expansion of Foxp3+CTLA4+CD25+ T cells co-cultured with FL-DCs", "setting": "[2]; 1-MT", "result": "appeared to interfere with the expansion"}, {"measurement": "IFN-γ-producing cells", "setting": "[2]; IDO blockade, 1-MT 2 μM", "result": "had no effect"}, {"measurement": "activation of IL-10-producing CD4+ cells", "setting": "[2]; IDO blockade, 1-MT 2 μM", "result": "prevented activation"}]}]}
